Converted amounts (≈) assume the structure as drawn. Some results are limits rather than exact numbers.

Format in all cases: cell-based
A short description of series [1]: in vitro. Conditions: human, cem cells, CC50 (50% cytostatic concentration), Table 2B; CEM cell proliferation; averages of 2 to 3 independent experiments. The gist of the method:
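In CEM cells, the cytostatic value is the compound concentration giving 50% inhibition of cell proliferation. Parallel work used HIV-1(IIIB) and culture-selected resistant strains Lys-138, 181-Cys, 188-His and 188-Leu.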

For series [2], the system named is HIV-1/Lys-138. Put plainly: Inhibition of HIV-1 induced syncytium formation in CEM cells, RT mutant 138-Lys. Conditions: Human immunodeficiency virus 1, CCRF-CEM, 96 h, Table 2B, day 4, averages of 2 to 3 independent experiments, read-out: Antiviral Activity of Comparative Compounds EC50, 138-Lys. The gist of the method: (§1)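 CEM cells (≈300,000 cells/ml) were infected with about 100 CCID50 of HIV-1(IIIB) or an RT mutant strain and added to 5-fold serial dilutions of test compound. Inhibition of HIV-1-induced syncytium formation was scored microscopically on day 4 post infection.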

The test system of series [3] is HIV-1/188-Leu. Put plainly: Inhibition of HIV-1 induced syncytium formation in CEM cells, RT mutant 188-Leu. Conditions: Human immunodeficiency virus 1, CCRF-CEM, 96 h, Table 2B, day 4, averages of 2 to 3 independent experiments, read-out: Antiviral Activity of Comparative Compounds EC50, 188-Leu. From the text: (§2) CEM cells were obtained from the American Tissue Cell Culture Collection (Rockville, Md.). HIV-1(IIIB) was originally obtained from the culture supernatant of persistently HIV-1-infected H9 cells and was provided by R. C. Gallo and M. Popovic (National Cancer Institute, National Institutes of Health, Bethesda, Md.). […] 67: 5353-5359 (1993); HIV-1/Lys-138 ("Lys-138") was selected for resistance against TSAO-m^3T as described in Balzarini et al, Virology 192: 246-253 (1993) and Balzarini et al, Proc. Nat. Acad. Sci. USA 90: 6952-6956 (1993); HIV-1/181-Cys ("181-Cys") was selected for resistance against pyridinone L-697,661 as described in Balzarini et al, Virology 192: 246-253 (1993); and HIV-1/188-His ("188-His") was selected for resistance against HEPT as described in Balzarini et al, Mol. Pharmocol. 44: 694-701 (1993). 188-His was then further converted to HIV-1/188-Leu "188-Leu") upon further passage in cell culture in the absence of the HEPT.
(§3) CEM cells were suspended at ≈300,000 cells per ml of culture medium and infected with approximately 100 CCID50 (CCID50 being the 50% cell culture infective dose) of HIV-1(IIIB) or one of the HIV-1 RT mutant strains described above. Then 100 μl of the infected cell suspensions was added to 200 μl microtiter plate wells containing 100 μl of appropriate serial (5-fold) dilutions of the test compounds. The inhibitory effect of the test compounds on HIV-1 induced syncytium formation in CEM cells was examined microscopically on day 4 post infection.

Series [4] deals with HIV-1/103-Asn. Put plainly: Inhibition of HIV-1 induced syncytium formation in CEM cells, RT mutant 103-Asn. The note with it: Human immunodeficiency virus 1, CCRF-CEM, 96 h, Table 2B, day 4, averages of 2 to 3 independent experiments, read-out: Antiviral Activity of Comparative Compounds EC50, 103-Asn.
Text: as §2, §3

The subject of series [5] is HIV-1/106-Ala. Put plainly: Inhibition of HIV-1 induced syncytium formation in CEM cells, RT mutant 106-Ala. The note with it: Human immunodeficiency virus 1, CCRF-CEM, 96 h, Table 2B, day 4, averages of 2 to 3 independent experiments, read-out: Antiviral Activity of Comparative Compounds EC50, 106-Ala. In short, it runs like this:
as §1

Series [6] has as its system HIV-1/100-Ile. Description: Inhibition of HIV-1 induced syncytium formation in CEM cells, RT mutant 100-Ile. Conditions: Human immunodeficiency virus 1, CCRF-CEM, 96 h, Table 2B, day 4, averages of 2 to 3 independent experiments, read-out: Antiviral Activity of Comparative Compounds EC50, 100-Ile. In short, it runs like this:
as §1

In series [7] the test system is HIV-1/181-Cys. Description: Inhibition of HIV-1 induced syncytium formation in CEM cells, RT mutant 181-Cys. Conditions: Human immunodeficiency virus 1, CCRF-CEM, 96 h, Table 2B, day 4, averages of 2 to 3 independent experiments, read-out: Antiviral Activity of Comparative Compounds EC50, 181-Cys. In short, it runs like this: as §1
The subject of series [8] is HIV-1(IIIB). Put plainly: Inhibition of HIV-1 induced syncytium formation in CEM cells, wild type. The note with it: Human immunodeficiency virus 1, IIIB, CCRF-CEM, 96 h, Table 2B, WT = HIV-1(IIIB), day 4, averages of 2 to 3 independent experiments, read-out: Antiviral Activity of Comparative Compounds EC50, WT. In short, it runs like this:
as §1

On to `CC=CCOc1cc(NC(=S)c2ccoc2C)ccc1Cl` [Compound 2], for which the CC50 in series [1] worked out at 9 µg/mL (≈ 28 µM). In addition, the EC50 in series [2] came to 0.018 µg/mL (≈ 0.0559 µM); in series [3], 0.65 µg/mL (≈ 2.02 µM); in series [4], 0.023 µg/mL (≈ 0.0715 µM); in series [5], 0.04 µg/mL (≈ 0.124 µM); in series [6] it was 0.048 µg/mL (≈ 0.149 µM); in series [7] it was 0.075 µg/mL (≈ 0.233 µM). Besides, the concentration for a half-maximal effect (EC50) in series [8] was 0.006 µg/mL (≈ 0.0186 µM).
The molecule `CC1=C(C(=S)Nc2ccc(Cl)c(C=NOC(C)(C)C)c2)CCO1` [Compound 7] displayed a CC50 in series [1] of 11 µg/mL (≈ 31.2 µM). The EC50 was 0.04 µg/mL (≈ 0.113 µM) in series [2]; 1.2 µg/mL (≈ 3.4 µM) in series [3]; 0.058 µg/mL (≈ 0.164 µM) in series [4]; 0.03 µg/mL (≈ 0.085 µM) in series [5]; 0.055 µg/mL (≈ 0.156 µM) in series [6]; 0.045 µg/mL (≈ 0.128 µM) in series [7]. Also, in series [8], the EC50 is 0.0065 µg/mL (≈ 0.0184 µM).
As for `CC1=C(C(=O)Nc2ccc(Cl)c(C=NOC(C)(C)C)c2)SCCO1` [Compound 18], the CC50 in series [1] worked out at 8.5 µg/mL (≈ 23 µM). Further, the EC50 in series [2] was 0.22 µg/mL (≈ 0.596 µM); in series [3], above 2 µg/mL; in series [4], 0.33 µg/mL (≈ 0.895 µM); in series [5], 0.15 µg/mL (≈ 0.407 µM); in series [6], 0.33 µg/mL (≈ 0.895 µM); in series [7], 0.13 µg/mL (≈ 0.352 µM). For the same molecule, the EC50 in series [8] is 0.014 µg/mL (≈ 0.038 µM).
For the molecule `Cc1sccc1C(=S)Nc1ccc(Cl)c(OCC2CCCC2)c1` [Compound 28], the CC50 in series [1] was determined as 4.3 µg/mL (≈ 11.8 µM). Besides, the EC50 is 0.11 µg/mL (≈ 0.301 µM) in series [2]; above 2 µg/mL in series [3]; 0.33 µg/mL (≈ 0.902 µM) in series [4]; 0.23 µg/mL (≈ 0.628 µM) in series [5]; 0.22 µg/mL (≈ 0.601 µM) in series [6]; 0.5 µg/mL (≈ 1.37 µM) in series [7]. In addition, in series [8], the EC50 stood at 0.029 µg/mL (≈ 0.0792 µM).
`CC=CCSc1cc(NC(=O)c2ccsc2C)ccc1Cl` [Compound 34] registered a CC50 in series [1] of 4.8 µg/mL (≈ 14.2 µM). Also, the half-maximal effective concentration (EC50) in series [2] is 0.5 µg/mL (≈ 1.48 µM); in series [3], above 2 µg/mL; in series [4] it was 0.8 µg/mL (≈ 2.37 µM); in series [5], 0.28 µg/mL (≈ 0.829 µM); in series [6], 0.65 µg/mL (≈ 1.92 µM); in series [7], 1.2 µg/mL (≈ 3.55 µM). The EC50 in series [8] worked out at 0.08 µg/mL (≈ 0.237 µM).
On to `CC1=C(C(=O)Nc2ccc(Cl)c(C=NOC(C)(C)C)c2)CCCO1` [Compound 24], for which half-maximal cytotoxicity in series [1] (CC50) was put at 9.7 µg/mL (≈ 27.6 µM). For the same molecule, the EC50 was 0.5 µg/mL (≈ 1.43 µM) in series [2]; above 2 µg/mL in series [3]; 0.6 µg/mL (≈ 1.71 µM) in series [4]; 0.5 µg/mL (≈ 1.43 µM) in series [5]; 0.48 µg/mL (≈ 1.37 µM) in series [6]; 0.33 µg/mL (≈ 0.941 µM) in series [7]. Besides, in series [8], the EC50 turned out to be 0.13 µg/mL (≈ 0.371 µM).
For `CC(C)=CCOc1cc(NC(=O)c2ccoc2C)ccc1Cl` [Compound 30], the CC50 in series [1] is above 100 µg/mL. Moreover, the EC50 was 0.23 µg/mL (≈ 0.719 µM) in series [2]; above 2 µg/mL in series [3]; 1.67 µg/mL (≈ 5.22 µM) in series [4]; 0.34 µg/mL (≈ 1.06 µM) in series [5]; 1.27 µg/mL (≈ 3.97 µM) in series [6]; 0.65 µg/mL (≈ 2.03 µM) in series [7]. For the same molecule, the EC50 in series [8] was 0.015 µg/mL (≈ 0.0469 µM).
With `CC1=C(C(=S)Nc2ccc(Cl)c(C=NOC(C)(C)C)c2)CCCO1` [Compound 5], in series [1], the midpoint of cytotoxicity, the CC50, lay at 10 µg/mL (≈ 27.3 µM). The EC50 is 0.04 µg/mL (≈ 0.109 µM) in series [2]; above 2 µg/mL in series [3]; 0.08 µg/mL (≈ 0.218 µM) in series [4]; 0.025 µg/mL (≈ 0.0681 µM) in series [5]; 0.055 µg/mL (≈ 0.15 µM) in series [6]; 0.025 µg/mL (≈ 0.0681 µM) in series [7]. The EC50 in series [8] was determined as 0.013 µg/mL (≈ 0.0354 µM).
Consider `CC=CCOc1cc(NC(=S)c2ccn(C)c2C)ccc1Cl` [Compound 19], for which the CC50 in series [1] was 5.2 µg/mL (≈ 15.5 µM). Besides, the EC50 was 0.6 µg/mL (≈ 1.79 µM) in series [2]; above 2 µg/mL in series [3]; at least 2 µg/mL in series [4]; 0.4 µg/mL (≈ 1.19 µM) in series [5]; 0.85 µg/mL (≈ 2.54 µM) in series [6]; 0.13 µg/mL (≈ 0.388 µM) in series [7]. The EC50 in series [8] worked out at 0.17 µg/mL (≈ 0.508 µM).

A word on the CC50: it is the concentration giving 50% cytotoxicity. Low readings indicate greater toxicity to the cells, high ones lower toxicity to the cells. The EC50 is the midpoint of the concentration-response curve.
